{"source": "paper PMC5218480", "about": "(PLoS ONE, 2017)", "test_system": "MV-4-11 cells", "test": "Gene expression microarray analysis (Affymetrix PrimeView) and GSEA", "format": "cell-based, human", "parameters": "RFU PODN (11730768_x_at) / Fold change /veh PODN (11730768_x_at) / RFU LINC00158 (11744669_a_at) / Fold change /veh LINC00158 (11744669_a_at) / RFU DUSP10 (11751237_a_at) / Fold change /veh DUSP10 (11751237_a_at) / RFU ID3 (11757404_x_at) / Fold change /veh ID3 (11757404_x_at) / RFU PLEKHG5 (11737974_s_at) / Fold change /veh PLEKHG5 (11737974_s_at) / RFU LRRC4B (11730491_at) / Fold change /veh LRRC4B (11730491_at) / RFU GIMAP4 (11747438_a_at) / Fold change /veh GIMAP4 (11747438_a_at) / RFU KRT8 (11758183_x_at) / Fold change /veh KRT8 (11758183_x_at) / RFU CNN1 (11734310_a_at) / Fold change /veh CNN1 (11734310_a_at) / RFU VPS37D (11726825_at) / Fold change /veh VPS37D (11726825_at) / RFU C10orf10 (11716522_x_at) / Fold change /veh C10orf10 (11716522_x_at) / RFU KIR2DL2 /// KIR2DL4 /// KIR2DL5A /// KIR2DL5B /// KIR2DS1 /// KIR2DS2 /// KIR2DS3 /// KIR2DS4 /// KIR3DL3 /// KIR3DL3 /// KIR3DS1 (11738374_at) / Fold change /veh KIR2DL2 /// KIR2DL4 /// KIR2DL5A /// KIR2DL5B /// KIR2DS1 /// KIR2DS2 /// KIR2DS3 /// KIR2DS4 /// KIR3DL3 /// KIR3DL3 /// KIR3DS1 (11738374_at) / RFU C1QL1 (11718748_at) / Fold change /veh C1QL1 (11718748_at) / RFU TMPRSS4 (11747572_a_at) / Fold change /veh TMPRSS4 (11747572_a_at) / RFU HAMP (11756126_x_at) / Fold change /veh HAMP (11756126_x_at) / RFU RNFT2 (11725882_a_at) / Fold change /veh RNFT2 (11725882_a_at) / RFU NR4A2 (11747474_a_at) / Fold change /veh NR4A2 (11747474_a_at) / RFU ABCC12 (11746883_a_at) / Fold change /veh ABCC12 (11746883_a_at) / RFU TMEM136 (11760407_x_at) / Fold change /veh TMEM136 (11760407_x_at) / RFU CLDN22 /// WWC2 (11732394_at) / Fold change /veh CLDN22 /// WWC2 (11732394_at) / RFU HLA-DPB1 (11760878_x_at) / Fold change /veh HLA-DPB1 (11760878_x_at) / RFU SPINT1 (11716480_a_at) / Fold change /veh SPINT1 (11716480_a_at) / RFU GAP43 (11754022_s_at) / Fold change /veh GAP43 (11754022_s_at) / RFU A4GNT (11735810_at) / Fold change /veh A4GNT (11735810_at) / RFU PRB3 (11715151_x_at) / Fold change /veh PRB3 (11715151_x_at) / RFU TUBB4B (11761932_at) / Fold change /veh TUBB4B (11761932_at) / RFU CAPN14 (11732068_a_at) / Fold change /veh CAPN14 (11732068_a_at) / RFU TMCC2 (11721928_a_at) / Fold change /veh TMCC2 (11721928_a_at) / RFU IRGQ (11745062_a_at) / Fold change /veh IRGQ (11745062_a_at) / RFU FAM174B (11720279_a_at) / Fold change /veh FAM174B (11720279_a_at) / RFU TMPRSS4 (11748680_a_at) / Fold change /veh TMPRSS4 (11748680_a_at) / RFU FAM212B (11763350_a_at) / Fold change /veh FAM212B (11763350_a_at) / RFU PLEKHG5 (11743358_a_at) / Fold change /veh PLEKHG5 (11743358_a_at) / RFU ZSCAN30 (11745921_a_at) / Fold change /veh ZSCAN30 (11745921_a_at) / RFU CMKLR1 (11741424_a_at) / Fold change /veh CMKLR1 (11741424_a_at) / RFU LOC101060620 /// MAPK8IP1 (11723275_at) / Fold change /veh LOC101060620 /// MAPK8IP1 (11723275_at) / RFU SPTSSB (11747773_x_at) / Fold change /veh SPTSSB (11747773_x_at) / RFU PRSS12 (11739890_at) / Fold change /veh PRSS12 (11739890_at) / RFU BIN1 (11741810_x_at) / Fold change /veh BIN1 (11741810_x_at) / RFU WNT11 (11732464_a_at) / Fold change /veh WNT11 (11732464_a_at) / RFU C10orf10 (11716521_a_at) / Fold change /veh C10orf10 (11716521_a_at) / RFU C5orf56 (11738089_at) / Fold change /veh C5orf56 (11738089_at) / RFU CYB561 (11721691_x_at) / Fold change /veh CYB561 (11721691_x_at) / RFU ANKRD19P (11752326_a_at) / Fold change /veh ANKRD19P (11752326_a_at) / RFU OR2T12 /// OR2T33 /// OR2T8 (11738714_s_at) / Fold change /veh OR2T12 /// OR2T33 /// OR2T8 (11738714_s_at) / RFU VCAN (11748164_a_at) / Fold change /veh VCAN (11748164_a_at) / RFU JSRP1 (11732532_at) / Fold change /veh JSRP1 (11732532_at) / RFU KRTAP10-11 (11738290_x_at) / Fold change /veh KRTAP10-11 (11738290_x_at) / RFU MYO3A (11730013_a_at) / Fold change /veh MYO3A (11730013_a_at) / RFU EBF3 (11725865_a_at) / Fold change /veh EBF3 (11725865_a_at) / RFU CAMK2N1 (11719241_x_at) / Fold change /veh CAMK2N1 (11719241_x_at) / RFU C5orf56 (11738088_a_at) / Fold change /veh C5orf56 (11738088_a_at) / RFU OLFML3 (11715873_a_at) / Fold change /veh OLFML3 (11715873_a_at) / RFU LOC100653217 /// NTM (11731650_a_at) / Fold change /veh LOC100653217 /// NTM (11731650_a_at) / RFU MAPK11 (11762145_a_at) / Fold change /veh MAPK11 (11762145_a_at) / RFU FIZ1 (11724087_x_at) / Fold change /veh FIZ1 (11724087_x_at) / RFU OASL (11726364_x_at) / Fold change /veh OASL (11726364_x_at) / RFU SOX15 (11748057_x_at) / Fold change /veh SOX15 (11748057_x_at) / RFU CD79A (11719716_a_at) / Fold change /veh CD79A (11719716_a_at) / RFU HIST1H1D (11736915_at) / Fold change /veh HIST1H1D (11736915_at) / RFU CASKIN2 (11723855_a_at) / Fold change /veh CASKIN2 (11723855_a_at) / RFU LOC730098 (11760151_x_at) / Fold change /veh LOC730098 (11760151_x_at) / RFU OR4N2 (11742367_at) / Fold change /veh OR4N2 (11742367_at) / RFU PRRT2 (11749266_a_at) / Fold change /veh PRRT2 (11749266_a_at) / RFU SNX32 (11753110_a_at) / Fold change /veh SNX32 (11753110_a_at) / RFU CDHR5 (11726645_a_at) / Fold change /veh CDHR5 (11726645_a_at) / RFU RCAN1 (11760418_a_at) / Fold change /veh RCAN1 (11760418_a_at) / RFU FAM167A (11723789_a_at) / Fold change /veh FAM167A (11723789_a_at) / RFU FAM26E (11764081_at) / Fold change /veh FAM26E (11764081_at) / RFU ISYNA1 (11749810_s_at) / Fold change /veh ISYNA1 (11749810_s_at) / RFU ACY1 (11761880_at) / Fold change /veh ACY1 (11761880_at) / RFU 11764098_at / Fold change /veh 11764098_at / RFU SAMD14 (11745864_x_at) / Fold change /veh SAMD14 (11745864_x_at) / RFU NPB (11741838_a_at) / Fold change /veh NPB (11741838_a_at) / RFU TMPRSS6 (11731388_a_at) / Fold change /veh TMPRSS6 (11731388_a_at) / RFU KRTAP10-2 (11738614_at) / Fold change /veh KRTAP10-2 (11738614_at) / RFU ARHGAP8 /// PRR5-ARHGAP8 (11727945_x_at) / Fold change /veh ARHGAP8 /// PRR5-ARHGAP8 (11727945_x_at) / RFU KRTAP5-7 /// NADSYN1 (11734609_at) / Fold change /veh KRTAP5-7 /// NADSYN1 (11734609_at) / RFU RASL12 (11751679_a_at) / Fold change /veh RASL12 (11751679_a_at) / RFU CDKN2B (11736163_a_at) / Fold change /veh CDKN2B (11736163_a_at) / RFU PRF1 (11729649_at) / Fold change /veh PRF1 (11729649_at) / RFU, ZNF638 /// ZNF638-IT1 / Fold change vs veh, ZNF638 /// ZNF638-IT1 / RFU, PANK3 / Fold change vs veh, PANK3 / RFU, SH3YL1 / Fold change vs veh, SH3YL1 / RFU, ZEB2 / Fold change vs veh, ZEB2 / RFU, NRIP1 / Fold change vs veh, NRIP1 / RFU, PTTG1IP / Fold change vs veh, PTTG1IP / RFU, CAPN2 / Fold change vs veh, CAPN2 / RFU, MED14 / Fold change vs veh, MED14 / RFU, SNORA58 / Fold change vs veh, SNORA58 / RFU, C1orf63 / Fold change vs veh, C1orf63 / RFU, LRRFIP1 / Fold change vs veh, LRRFIP1 / RFU, NDUFAF7 / Fold change vs veh, NDUFAF7 / RFU, SLC12A2 / Fold change vs veh, SLC12A2 / RFU, IBTK / Fold change vs veh, IBTK / RFU, ESF1 / Fold change vs veh, ESF1 / Fold change vs veh, TMEM50B / RFU, TAOK1 / Fold change vs veh, TAOK1 / RFU, ACBD3 / Fold change vs veh, ACBD3 / RFU, TMA16 / Fold change vs veh, TMA16 / RFU, RWDD3 / Fold change vs veh, RWDD3 / RFU, BCAT1 / Fold change vs veh, BCAT1 / RFU, EDEM3 / Fold change vs veh, EDEM3 / RFU, TMEM33 / Fold change vs veh, TMEM33 / RFU, WDR75 / Fold change vs veh, WDR75 / RFU, AHCTF1 / Fold change vs veh, AHCTF1 / RFU, TFRC / Fold change vs veh, TFRC / RFU, ZDHHC17 / Fold change vs veh, ZDHHC17 / RFU, NOM1 / Fold change vs veh, NOM1 / RFU, ARL8B / Fold change vs veh, ARL8B / RFU, ZBTB11 / Fold change vs veh, ZBTB11 / RFU, TAMM41 / Fold change vs veh, TAMM41 / RFU, KIAA1704 /// LOC100996395 / Fold change vs veh, KIAA1704 /// LOC100996395 / RFU, ING1 / Fold change vs veh, ING1 / RFU, TRMT61B / Fold change vs veh, TRMT61B / RFU, FUBP3 / Fold change vs veh, FUBP3 / RFU, TP53 / Fold change vs veh, TP53 / RFU, TNKS2 / Fold change vs veh, TNKS2 / RFU, ZFP14 / Fold change vs veh, ZFP14 / RFU, ACTR2 / Fold change vs veh, ACTR2 / RFU, PPP3R1 / Fold change vs veh, PPP3R1 / RFU, PIK3R1 / Fold change vs veh, PIK3R1 / RFU, HNRNPA1 / Fold change vs veh, HNRNPA1 / RFU, RNF170 / Fold change vs veh, RNF170 / RFU, ZNF28 / Fold change vs veh, ZNF28 / RFU, RNGTT / Fold change vs veh, RNGTT / RFU, OGT / Fold change vs veh, OGT / RFU, BRD1 / Fold change vs veh, BRD1 / RFU, MARS / Fold change vs veh, MARS / RFU, ZNF655 / Fold change vs veh, ZNF655 / RFU, FAHD1 / Fold change vs veh, FAHD1 / RFU, BDP1 / Fold change vs veh, BDP1 / RFU, LRRCC1 / Fold change vs veh, LRRCC1 / RFU, ARID1A / Fold change vs veh, ARID1A / RFU, ZNF146 / Fold change vs veh, ZNF146 / RFU, ZNF330 / Fold change vs veh, ZNF330 / RFU, GPN3 / Fold change vs veh, GPN3 / RFU, C9orf123 / Fold change vs veh, C9orf123 / RFU, N4BP2L2 / Fold change vs veh, N4BP2L2 / RFU, ARFIP1 / Fold change vs veh, ARFIP1 / RFU, FAM179B / Fold change vs veh, FAM179B / RFU, BCL10 / Fold change vs veh, BCL10 / RFU, UHRF1BP1L / Fold change vs veh, UHRF1BP1L / RFU, BET1 / Fold change vs veh, BET1 / RFU, CNOT2 / Fold change vs veh, CNOT2 / RFU, ZNF268 / Fold change vs veh, ZNF268 / Fold change vs veh, ZNF507 / RFU, DGCR2 / Fold change vs veh, DGCR2 / RFU, WDSUB1 / Fold change vs veh, WDSUB1 / Fold change vs veh, HSP90B1 /// MIR3652 / RFU, ADSS / Fold change vs veh, ADSS / RFU, GK / Fold change vs veh, GK / RFU, ZNF148 / Fold change vs veh, ZNF148 / RFU, TAF9 / Fold change vs veh, TAF9 / RFU, SLC1A5 / Fold change vs veh, SLC1A5 / RFU, SLMO2 / Fold change vs veh, SLMO2 / RFU, ABCC4 / Fold change vs veh, ABCC4 / RFU, LOC101060439 /// RAP1B / Fold change vs veh, LOC101060439 /// RAP1B / RFU, RFX7 / Fold change vs veh, RFX7 / RFU, GTPBP10 / Fold change vs veh, GTPBP10 / RFU, CNEP1R1 / Fold change vs veh, CNEP1R1 / RFU, BIVM-ERCC5 /// ERCC5 / Fold change vs veh, BIVM-ERCC5 /// ERCC5 / RFU, ILF3 / Fold change vs veh, ILF3 / RFU 11762660_at / Fold change /veh 11762660_at / RFU VCAN (11757783_s_at) / Fold change /veh VCAN (11757783_s_at) / RFU DDX43 (11728927_at) / Fold change /veh DDX43 (11728927_at) / RFU KRT8 (11758188_x_at) / Fold change /veh KRT8 (11758188_x_at) / RFU NKD1 (11759106_at) / Fold change /veh NKD1 (11759106_at) / RFU SRD5A1 (11742802_a_at) / Fold change /veh SRD5A1 (11742802_a_at) / RFU TPSAB1 /// TPSB2 (11721975_s_at) / Fold change /veh TPSAB1 /// TPSB2 (11721975_s_at) / RFU GSTM3 (11746129_a_at) / Fold change /veh GSTM3 (11746129_a_at) / RFU IL23R (11737362_x_at) / Fold change /veh IL23R (11737362_x_at) / RFU TMEM51 (11727254_a_at) / Fold change /veh TMEM51 (11727254_a_at) / RFU PIWIL2 (11732686_x_at) / Fold change /veh PIWIL2 (11732686_x_at) / RFU ORM1 (11744905_x_at) / Fold change /veh ORM1 (11744905_x_at) / RFU CCDC152 (11743942_at) / Fold change /veh CCDC152 (11743942_at) / RFU ECM1 (11717891_a_at) / Fold change /veh ECM1 (11717891_a_at) / RFU IL23R (11748794_a_at) / Fold change /veh IL23R (11748794_a_at) / RFU TNFAIP8L3 (11732012_x_at) / Fold change /veh TNFAIP8L3 (11732012_x_at) / RFU MBOAT4 (11741988_at) / Fold change /veh MBOAT4 (11741988_at) / RFU 11764193_at / Fold change /veh 11764193_at / RFU TMEM53 (11763286_at) / Fold change /veh TMEM53 (11763286_at) / RFU MAGEB2 (11727129_at) / Fold change /veh MAGEB2 (11727129_at) / RFU TMEM200A (11744735_a_at) / Fold change /veh TMEM200A (11744735_a_at) / RFU CCDC152 (11751479_a_at) / Fold change /veh CCDC152 (11751479_a_at) / RFU FAM211A (11726209_a_at) / Fold change /veh FAM211A (11726209_a_at) / RFU RGS16 (11746705_a_at) / Fold change /veh RGS16 (11746705_a_at) / RFU VCAN (11755009_s_at) / Fold change /veh VCAN (11755009_s_at) / RFU RHOB (11743442_s_at) / Fold change /veh RHOB (11743442_s_at) / RFU RGS16 (11720943_a_at) / Fold change /veh RGS16 (11720943_a_at) / RFU RGS16 (11720944_at) / Fold change /veh RGS16 (11720944_at) / RFU, VPS4B / Fold change vs veh, VPS4B / RFU, CREB1 / Fold change vs veh, CREB1 / RFU, DNAJC13 / Fold change vs veh, DNAJC13 / RFU, GNAQ / Fold change vs veh, GNAQ / RFU, CDK5R1 / Fold change vs veh, CDK5R1 / RFU, ZRANB3 / Fold change vs veh, ZRANB3 / RFU, CUL4A / Fold change vs veh, CUL4A / RFU, CCNY / Fold change vs veh, CCNY / RFU, UFL1 / Fold change vs veh, UFL1 / RFU, COG3 / Fold change vs veh, COG3 / RFU, DIAPH2 / Fold change vs veh, DIAPH2 / RFU, SKA2 / Fold change vs veh, SKA2 / RFU, AFF3 / Fold change vs veh, AFF3 / RFU, LMF1 / Fold change vs veh, LMF1 / RFU, IPO11 / Fold change vs veh, IPO11 / RFU, DFFB / Fold change vs veh, DFFB / RFU, FOXP1 / Fold change vs veh, FOXP1 / RFU, CARD8 / Fold change vs veh, CARD8 / RFU, STRN3 / Fold change vs veh, STRN3 / RFU, ADK / Fold change vs veh, ADK / RFU, RASSF2 / Fold change vs veh, RASSF2 / RFU, WIPF1 / Fold change vs veh, WIPF1 / RFU, LARP1B / Fold change vs veh, LARP1B / RFU, RASA1 / Fold change vs veh, RASA1 / RFU, RB1 / Fold change vs veh, RB1 / RFU, PPFIA1 / Fold change vs veh, PPFIA1 / RFU, MAT2A / Fold change vs veh, MAT2A / RFU, CCT5 / Fold change vs veh, CCT5 / RFU, WDR92 / Fold change vs veh, WDR92 / RFU, CUX1 / Fold change vs veh, CUX1 / RFU, TTC7A / Fold change vs veh, TTC7A / RFU, TMEM135 / Fold change vs veh, TMEM135 / RFU, DEPTOR / Fold change vs veh, DEPTOR / RFU, CPM / Fold change vs veh, CPM / RFU, DNAJB6 / Fold change vs veh, DNAJB6 / RFU, CACNA2D3 / Fold change vs veh, CACNA2D3 / RFU, DTX4 / Fold change vs veh, DTX4 / RFU, TFCP2 / Fold change vs veh, TFCP2 / RFU, GMCL1 /// GMCL1P1 / Fold change vs veh, GMCL1 /// GMCL1P1 / RFU, AEBP2 / Fold change vs veh, AEBP2 / RFU, SNHG1 /// SNORD22 /// SNORD25 /// SNORD26 /// SNORD27 /// SNORD28 /// SNORD29 /// SNORD31 / Fold change vs veh, SNHG1 /// SNORD22 /// SNORD25 /// SNORD26 /// SNORD27 /// SNORD28 /// SNORD29 /// SNORD31 / Fold change (Aza/veh), C12orf56 (ProbeSet 11735607_a_at) / Fold change (ACY-1035/veh), C12orf56 (ProbeSet 11735607_a_at) / Fold change (Aza/veh), FGFR1OP (ProbeSet 11751329_s_at) / Fold change (ACY-1035/veh), FGFR1OP (ProbeSet 11751329_s_at) / Fold change (Aza/veh), VPS36 (ProbeSet 11739960_a_at) / Fold change (ACY-1035/veh), VPS36 (ProbeSet 11739960_a_at) / RFU SYPL1 (11715823_x_at) / Fold change /veh SYPL1 (11715823_x_at) / RFU IGFBP7 (11715501_s_at) / Fold change /veh IGFBP7 (11715501_s_at) / RFU REEP3 (11722064_at) / Fold change /veh REEP3 (11722064_at) / RFU IGLL1 (11728026_x_at) / Fold change /veh IGLL1 (11728026_x_at): dose or concentration left out as unconfirmed", "settings": "MV-4-11 cells, 48 hours"}
{"smiles": "Nc1ncn([C@@H]2O[C@H](CO)[C@@H](O)[C@H]2O)c(=O)n1", "note": "[azacitidine]", "values": [{"measurement": "Fold change /veh C1QL1 (11718748_at)", "value": 0.93}]}
